US10738031B2, “N-[(heteroaryloxy)propanyl]heteroaryl carboxamides as antagonists of orexin subtype 1 receptor activity” (Boehringer Ingelheim International GmbH, priority 2016, dated 2020)
Like-named read-outs stand apart in the source and are kept apart here.

What was measured:
OX2R [1] = target: T1, OX2R (Homo sapiens, UniProt O43614); assay: OX2R potency as described in WO2016/034882; settings: read-out: OX2R IC50 (corresponds to pIC50) (converted)
T1 sequence (O43614 1-444): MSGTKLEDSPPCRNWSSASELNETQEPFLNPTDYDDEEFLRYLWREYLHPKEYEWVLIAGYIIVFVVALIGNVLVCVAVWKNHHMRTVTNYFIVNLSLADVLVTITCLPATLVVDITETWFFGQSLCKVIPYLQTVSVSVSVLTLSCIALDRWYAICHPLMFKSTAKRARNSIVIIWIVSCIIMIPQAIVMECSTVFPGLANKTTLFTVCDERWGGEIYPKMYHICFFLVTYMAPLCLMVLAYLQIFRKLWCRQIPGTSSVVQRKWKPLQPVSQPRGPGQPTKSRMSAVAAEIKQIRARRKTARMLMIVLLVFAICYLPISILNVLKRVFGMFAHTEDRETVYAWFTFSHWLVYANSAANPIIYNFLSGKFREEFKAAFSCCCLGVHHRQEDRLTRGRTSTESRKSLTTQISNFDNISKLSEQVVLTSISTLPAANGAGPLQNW

OX1R = target: T2, OX1R (Homo sapiens, UniProt O43613); assay: OX1R potency as described in WO2016/034882; settings: for IC50: read-out: OX1R IC50 (corresponds to pIC50) (converted)
T2 sequence (O43613 1-425): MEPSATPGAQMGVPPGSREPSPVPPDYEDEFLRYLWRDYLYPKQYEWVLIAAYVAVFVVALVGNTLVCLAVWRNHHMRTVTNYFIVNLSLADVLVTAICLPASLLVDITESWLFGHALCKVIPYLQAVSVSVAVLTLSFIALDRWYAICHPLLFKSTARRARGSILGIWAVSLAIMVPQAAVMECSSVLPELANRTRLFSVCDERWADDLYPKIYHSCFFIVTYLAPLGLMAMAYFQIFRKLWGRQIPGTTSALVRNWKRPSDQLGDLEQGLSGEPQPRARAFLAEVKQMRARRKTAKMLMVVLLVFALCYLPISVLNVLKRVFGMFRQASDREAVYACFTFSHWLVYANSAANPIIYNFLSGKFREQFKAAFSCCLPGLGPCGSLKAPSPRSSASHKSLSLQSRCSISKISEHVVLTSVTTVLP

OX2R [2] = target: T1, OX2R; settings: cited from earlier work
human Orexin 1 receptor = target: T3, human Orexin 1 receptor (Homo sapiens, UniProt O43613); assay: Assay A: OX1R IP1 (in vitro OX1R potency); assay type: cell-based
T3 construct: stably expressing the full-length human Orexin 1 receptor; expressed in transfected cells; host or cells: CHO-K1 (CHO-K1/hOX1), co-expressing aequorin
T3 sequence (O43613 1-425): T2 sequence (O43613 1-425)

Compound	IC50 (OX2R [1]; Table 1 of WO2016/034882) [µM]	IC50 (OX2R [1]; Table 3 of WO2016/034882) [µM]	OX2R IC50/OX1R IC50 (OX1R; Table 1 of WO2016/034882)	OX2R IC50/OX1R IC50 (OX1R; Table 2 of WO2016/034882)	IC50 (OX1R; Table 2 of WO2016/034882) [nM]	OX2R IC50/OX1R IC50 (OX1R; Table 3 of WO2016/034882)	IC50 (OX1R; Table 3 of WO2016/034882) [nM]	OX2R pIC50 (OX2R [2]; Table 2 of WO2016/034882)	OX2R pIC50 (OX2R [2]; Table 3 of WO2016/034882)	OX2R Kb/OX1R Kb (human Orexin 1 receptor)	Kb (human Orexin 1 receptor; Table 3, Orexin A concentration 50 nM) [nM]
CC[C@@H](CNc1ncc(C(F)(F)F)cn1)N(C)C(=O)c1nc(C)ccc1-n1nccn1 [Ex 46 in WO2016/ 034882]	7.8	≥ 10	390	> 312	32	3200	3.2	< 5.0	< 5.0	–	–
CC[C@@H](CNc1ncc(C(F)(F)F)cn1)N(CC)C(=O)c1nc(C)ccc1-n1nccn1 [Ex 73 in WO2016/ 034882]	–	–	–	–	–	–	–	–	< 6.0	–	–
CC[C@@H](CNc1cnc(C(F)(F)F)cn1)N(CC)C(=O)c1nc(C)ccc1-n1nccn1 [Ex 70 in WO2016/ 034882]	–	> 5	–	–	–	–	1.6	–	–	319	0.135
